# Data from US8575214B2, “MGlu 2/3 agonists” (Eli Lilly and Company, priority 2012, dated 2013).
# How the values were obtained:
# Male Sprague Dawley rats = test: Reversal of colorectal distension-induced pain behaviors; type: in vivo, rat; details: 90 minutes post dosing, mean ± SEM
# Description: Visceral pain in rats can be induced by distension of the colorectal cavity and pain monitored by accessing the reflex contraction of abdominal muscles. Measurement of abdominal muscle reflex contractions with pain caused by colorectal distension in the rat is performed substantially as described by Fioramonti et al. Neurogastroenterology and Motility (2003) 15, 363-369 and Urban et al. J. of Pharmacology and Exp. Ther. (1999) 290, 207-213. Male Sprague Dawley rats are surgically implanted with electromyographic (EMG) electrodes in the oblique abdominal muscle and allowed to recover for one week, during which animals are acclimated to handling and partial restraint to minimize effects of stress. Baseline EMG measurements are collected and recorded after the insertion into the rectum (8 cm) of a lubricated latex balloon attached to a pressure monitor/regulator to step the pressure between 20, 40, and 60 mm Hg for a 20 second duration with a 3 minute resting period between trials. A set of three exposures at each pressure is recorded before stepping the pressure up to the next level. Data are collected as the area under the curve for EMG reading (volts per second) during the pressure stimulations, and averaged over the three trials. A test compound (prodrug) is orally dosed within a range of 1.5 to 17 mg/kg 90 minutes prior to the beginning of the colorectal distension. Statistical significance is defined as a p value <0.05 in an analysis of covariance followed by a Dunnett's post hoc test. Table 3 below provides the statistically significant results for Example 10 run substantially as above.
# rats [1] = test: Reversal of CFA-induced mechanical hyperalgesia (Randall Sellito test); type: in vivo, rat; details: mean ± SEM, p<0.05 vs vehicle
# Description: Induction of local inflammation in the rat hind paw will cause a persistent mechanical hyperalgesia that can be measured by determining the threshold to pressure stimuli to give a painful response. The method for complete Freund's adjuvant (CFA) induced mechanical hyperalgesia in rats is largely described in Iadarola et al. Brain Res. (1988) 455, 205-212. Rats are placed under isoflurane anesthesia while the right paw is injected with 50 μl of CFA (Sigma C5881, 1 mg/ml mycobacterium extract in 85% paraffin oil, 15% mannide monooleate) intraplantar. Animals are allowed to recover in soft bedding cages and mechanical hyperalgesia changes measured 24 hours post-CFA injection. Mechanical hyperalgesia (Randall Sellito Test) is determined by gently restraining the rat and placing the paw between the plinth and pusher (Ugo Basile Analgesy-meter). The gram force when the animal withdraws the paw is recorded.
# Rats are tested for baseline response prior to CFA injection. Post-CFA response is tested the next morning (about 24 hours post injection of CFA). Rats are randomized based on post-CFA response with any rat showing a score of >150 grams excluded from further testing. A test compound (prodrug) is orally dosed within a range of 1.5 to 15 mg/kg and mechanical threshold for paw withdrawal is measured at 1 and 2 hours post dosing. Statistical significance is defined as a p value <0.05 in an analysis of covariance followed by a Dunnett's post hoc test for each time point. Table 2 below provides the statistically significant results for Example 10 run substantially as above.
# male Sprague-Dawley rats = test: Reversal of persistent pain induced by formalin injection; type: in vivo; details: po, 2 h, dosed two hours prior to intraplantar formalin, rat
# rats [2] = test: Reversal of L5/L6 nerve ligation induced tactile allodynia; type: in vivo, rat; details: 15 mg/kg orally, n=8, ±SEM
# Description: Unilateral ligation of nerves innervating the hind leg region will result in a chronic persistent pain manifested as tactile allodynia in rats. L5/L6 nerve ligation is performed (Kim et al. Pain (1992) 50, 355-363). Neuropathic injury is produced by tightly ligating the left L5 and L6 spinal nerves under gaseous anesthesia with a mixture of isoflurane (3% for induction and 2% for maintenance) and oxygen. After a minimum of 14 days after surgery, tactile allodynia is evaluated by measuring tactile sensitivity of the injured paw to von Frey filaments with incremental bending forces (0.3 to 15 g) (Chaplan et al. J. of Neuroscience Methods (1994) 53, 55-63). […] Baseline values are determined immediately prior to assessment of test compound. A test compound (prodrug) is orally dosed at 15 mg/kg and the tactile threshold for paw withdrawal is measured at 1, 2 and 4 hours post dosing. Data are expressed as response threshold in grams (g) and values are with standard errors of means (±SE mean) for each time point. Data are analyzed using an analysis of variance followed by a Dunnett's post hoc analysis and represent absolute change in pain threshold (Cmax=maximum Response Baseline) and expressed as Mean [log (maximum response)−log predose score)] (g).
compound,measurement,setting,value
"C[C@H](N)C(=O)N[C@@]1(C(=O)O)CC2(CC2)[C@H]2[C@H](C(=O)O)[C@H]21 [Example 10, (1S,2S,5R,6S)-2-[[(2S)-2-Aminopropanoyl]amino]spiro[bicyclo[3.1.0]hexane-4,1′-cyclopropane]-2,6-dicarboxylic acid dihydrate]",AUC of EMG reading for abdominal muscle with 60 mmHg colorectal pressure,"Male Sprague Dawley rats; 1.5 mg/kg po, pre-dosing baseline 853 ± 142, vehicle 849 ± 65",618 ± 92 μV/sec
same,AUC of EMG reading for abdominal muscle with 60 mmHg colorectal pressure,"Male Sprague Dawley rats; 4.5 mg/kg po, pre-dosing baseline 887 ± 152, p<0.05 vs vehicle",531 ± 99 μV/sec
same,AUC of EMG reading for abdominal muscle with 60 mmHg colorectal pressure,"Male Sprague Dawley rats; 17 mg/kg po, pre-dosing baseline 773 ± 134, p<0.05 vs vehicle",266 ± 87 μV/sec
same,Paw withdrawal Threshold,"rats [1]; 1.5 mg/kg po, one hour post dosing, group pre CFA 243 ± 5, 24 hours post CFA 113 ± 8","180 ± 14 grams, force"
same,Paw withdrawal Threshold,"rats [1]; 1.5 mg/kg po, two hours post dosing, group pre CFA 243 ± 5, 24 hours post CFA 113 ± 8","186 ± 19 grams, force"
same,Paw withdrawal Threshold,"rats [1]; 4.5 mg/kg po, one hour post dosing, group pre CFA 221 ± 10, 24 hours post CFA 114 ± 9","153 ± 20 grams, force"
same,Paw withdrawal Threshold,"rats [1]; 4.5 mg/kg po, two hours post dosing, group pre CFA 221 ± 10, 24 hours post CFA 114 ± 9","221 ± 20 grams, force"
same,Paw withdrawal Threshold,"rats [1]; 15 mg/kg po, one hour post dosing, group pre CFA 244 ± 4, 24 hours post CFA 108 ± 12, cut-off 250 grams","250 ± 0 grams, force"
same,Paw withdrawal Threshold,"rats [1]; 15 mg/kg po, two hours post dosing, group pre CFA 244 ± 4, 24 hours post CFA 108 ± 12","232 ± 15 grams, force"
same,ED50,male Sprague-Dawley rats,4.8 mg/kg
same,"mechanical threshold (von Frey, paw withdrawal)","rats [2]; four hours post dosing, vehicle 2.35±0.62",8.63 ± 1.98 g
same,"mechanical threshold (von Frey, paw withdrawal)","rats [2]; one hour post dosing, vehicle 1.50±0.60",9.06 ± 2.26 g
same,"mechanical threshold (von Frey, paw withdrawal)","rats [2]; two hours post dosing, vehicle 1.34±0.75",12.31 ± 1.86 g
